Where “and” joins values, the source holds several entries; their conditions need not be identical. Identical values can stand only once. Like-named read-outs stand apart in the source and are kept apart here. Values belong to the molecule of their own block, whether it stands above or below them. Where no end group is shown, it is not given here. [ ]: non-standard residue; d: D form. Bip = N[C@@H](Cc1ccc(-c2ccccc2)cc1)C(=O)O; NMeF = CN[C@@H](Cc1ccccc1)C(=O)O; Ahp(2) = CCCCC[C@H](N)C(=O)O
Tests used:
Daudi cells [1] = assay: KILR ADCC killing assay: KILR-transfected Daudi cells with purified NK cells (% dead cells); type: cell-based; conditions: for % dead cells, KILR ADCC killing assay: KILR Daudi cells with purified NK cells, duplicate columns
Text: In some embodiments, CD38-ABT ARMs bind to target cells and antibodies, e.g., human antibodies. In some embodiments, such ternary structures present antibodies to effector cells such as NK cell and bind to, e.g., CD16a receptors. […] Daudi cells were transfected with KILR reporter construct (DiscoverX #97-0002). An attenuated lentivirus was designed to deliver a Moloney Murine Leukemia Virus (MMLV) engineered to drive expression of a housekeeping gene tagged with Enhanced ProLabel (ePL) a beta-Galactosidase (beta-gal) reporter fragment. This construct was designed to remain inside cells. Death leads to the release of the KILR reporter protein into the medium. Detection reagent (DiscoverX #97-0001L) contained the complementing beta-gal reporter fragment enzyme acceptor (EA). The two components combined to generate a chemiluminescent signal.

Daudi cells [2] = assay: Ternary binding assay: recruitment of PE-labeled human IgG1k to Daudi cells (flow cytometry, MFI); type: cell-based; conditions: for MFI, recruitment of PE-labeled human IgG1k to Daudi cells: duplicate columns
Experimental: Various technologies can be utilized to assess and/or characterize recruitment of antibodies to target cells, e.g., cancer cells. One such assay is a ternary binding assay. An exemplary protocol is described herein. Compounds were diluted in DMSO (MP 191418) to 1000× the starting concentration used in the assay into a 96 well polypropylene plate (Corning 3357). They were then serially diluted in ½ log increments to generate 8-12 concentrations in DMSO (assay dependent). These DMSO stocks were then step diluted 1/100 into PBS (VWR Cat. #20012043). Step diluted compound range was then added into the polypropylene assay plate 1/10 the volume of the assay volume. Daudi (ATCC CCL-213), a non-adherent cell line, were counted and centrifuged and resuspended at a concentration of 100,000 cells per 90 ul in Flow buffer: 1% BSA (American Bio AB01088-00100); 0.5 mM EDTA (VWR 45001-122); PBS (VWR Cat. #20012043) with 11.1 ug/mL human IgG1k Phycoerythrin labeled (SouthernBiotech #0151K-09 PE). The cells were then added into the polypropylene plate with the step diluted compounds and incubated at 37° C. for 30 min. At the end of the incubation, the cells were centrifuged and washed 2× with How buffer containing 0.5% Tween 20 (BP337-500). Samples were analyzed on a BD FacsCelesta. Mean fluorescence was analyzed using Graphpad Prism and curves were fit using log(inhibitor) vs. response—Variable slope (four parameters).

[3] = tested on: Effector cells (ADCC reporter cells) with Daudi cells; assay: ADCC reporter assay: Daudi cells, IVIG and ADCC reporter effector cells (luciferase, RLU); type: cell-based; conditions: IVIG; for Luminescence, ADCC reporter assay: 18 h, duplicate columns
Experimental: Daudi (ATCC CCL-213) cells were resuspended in Opti-MEM (Thermo Fisher Scientific #31985070), counted (Life Technologies Countless II cell counter) and plated (5,000 cells in 25 uL/well; Corning plates: 3917). Compounds w diluted in DMSO (MP 191418) to 1000× the starting concentration used in the assay into a 96 well polypropylene plate (Corning 3357). They were then serially diluted in ½ log increments to generate 8 concentrations in DMSO (assay dependent). These DMSO stocks were then step diluted 1/250 into Opti-MEM. Step diluted compound range was then added into the polypropylene assay plate 25 uL/well. The human antibody solution (Grifols IVIG Fleogogamma #61953-0005-2) was diluted to 40 ug/mL and added 25 uL/well. Effector cells (ADCC reporter cells—Promega kit: G7018) were added 37,500 in 25 uL/well. The assay was then incubated 18 h at 37° C. Following the induction period, the plate was equilibrated to 25° C. followed the addition of the luciferase substrate (75 uL/well, 1 vial in 10 mL of Bio-Glo assay buffer, Promega kit: G7018). The luminescence was measured (Biotek Synergy H1 microplate reader).

CD38 [4] = target: T1, CD38 (human, UniProt P28907 43-300, limits assumed); assay: ELISA; larger values represent binding
T1 construct: also called cluster of differentiation 38; cyclic ADP ribose hydrolase

CD38 [5] = target: T1, CD38; assay: ELISA; larger values represent binding; remark: listed apart in the source

Molecule: CCCCC[C@@H]1NC(=O)[C@H](CCCNC(=N)N)NC(=O)[C@H](C)NC(=O)CSC[C@@H](C(=O)NCCOCCOCCC(=O)NCCOCCOCCC(=O)N[C@@H](CC(=O)O)C(=O)N[C@H]2CSSC[C@@H](C(=O)N[C@H](C(=O)O)[C@@H](C)O)NC(=O)[C@H](Cc3c[nH]c4ccccc34)NC(=O)[C@H](C(C)C)NC(=O)[C@H](CC(C)C)NC(=O)[C@H](CCC(=O)O)NC(=O)CNC(=O)[C@H](CC(C)C)NC(=O)[C@H](Cc3c[nH]cn3)NC(=O)[C@H](Cc3c[nH]c4ccccc34)NC(=O)[C@H](C)NC2=O)NC(=O)[C@H](CC(=O)O)NC(=O)[C@H](CCCCC)NC(=O)[C@H](Cc2ccc(-c3ccccc3)cc2)NC(=O)[C@H](CC(C)C)NC(=O)[C@H](C(C)C)NC(=O)CNC(=O)[C@H](CC(=O)O)NC(=O)[C@H](Cc2c[nH]cn2)NC(=O)[C@H](Cc2ccc(O)cc2)NC1=O [I-34]
% dead cells, KILR ADCC killing assay (Daudi cells [1]; compound 1 nM): 13.9% and 15.8% | % dead cells, KILR ADCC killing assay (Daudi cells [1]; compound 3 nM): 13.6% and 13.4% | % dead cells, KILR ADCC killing assay (Daudi cells [1]; compound 10 nM): 14.9% and 14.5% | % dead cells, KILR ADCC killing assay (Daudi cells [1]; compound 30 nM): 17.8% and 16.4% | % dead cells, KILR ADCC killing assay (Daudi cells [1]; compound 100 nM): 19.7% and 16.9% | % dead cells, KILR ADCC killing assay (Daudi cells [1]; compound 300 nM): 18.9% and 18.8% | % dead cells, KILR ADCC killing assay (Daudi cells [1]; compound 1000 nM): 15.3% and 15.9% | % dead cells, KILR ADCC killing assay (Daudi cells [1]; compound 3000 nM): 14.2% and 13.5% | MFI, recruitment of PE-labeled human IgG1k to Daudi cells (Daudi cells [2]; compound 3 nM): 2094 and 1853 | MFI, recruitment of PE-labeled human IgG1k to Daudi cells (Daudi cells [2]; compound 10 nM): 11368 and 6266 | MFI, recruitment of PE-labeled human IgG1k to Daudi cells (Daudi cells [2]; compound 30 nM): 15113 and 15626 | MFI, recruitment of PE-labeled human IgG1k to Daudi cells (Daudi cells [2]; compound 100 nM): 30043 and 19748 | MFI, recruitment of PE-labeled human IgG1k to Daudi cells (Daudi cells [2]; compound 300 nM): 24939 and 24944 | MFI, recruitment of PE-labeled human IgG1k to Daudi cells (Daudi cells [2]; compound 1000 nM): 27313 and 25699 | MFI, recruitment of PE-labeled human IgG1k to Daudi cells (Daudi cells [2]; compound 3000 nM): 19464 and 23695 | EC50 ([3]; ADCC reporter assay): 6.7 nM | Luminescence, ADCC reporter assay ([3]; compound 1 nM): 4355 RLU and 4667 RLU | Luminescence, ADCC reporter assay ([3]; compound 3 nM): 5459 RLU and 5627 RLU | Luminescence, ADCC reporter assay ([3]; compound 10 nM): 13353 RLU and 13815 RLU | Luminescence, ADCC reporter assay ([3]; compound 30 nM): 16833 RLU and 17160 RLU | Luminescence, ADCC reporter assay ([3]; compound 100 nM): 19999 RLU and 21759 RLU | Luminescence, ADCC reporter assay ([3]; compound 300 nM): 19948 RLU and 20759 RLU | Luminescence, ADCC reporter assay ([3]; compound 1000 nM): 12953 RLU and 13376 RLU | Luminescence, ADCC reporter assay ([3]; compound 3000 nM): 8601 RLU and 9733 RLU

Molecule: I-38: "A mixture of compound 6 ... compound 2 ... DIEA ... to get compound I-38 (Q1 ...) and compound I-38 (Q2 ...)" (ARXYHDGVLXXDCXXXKXDCAWHLGELVWCT; not fully specified; D-residues; cyclised or stapled)
EC50 (Daudi cells [1]; KILR ADCC killing assay, Daudi cells with purified NK cells): > 3000 nM | % dead cells, KILR ADCC killing assay (Daudi cells [1]; compound 1 nM): 10.4% and 10.9% | % dead cells, KILR ADCC killing assay (Daudi cells [1]; compound 3 nM): 10.2% and 10.7% | % dead cells, KILR ADCC killing assay (Daudi cells [1]; compound 30 nM): 10.6% and 11.6% | % dead cells, KILR ADCC killing assay (Daudi cells [1]; compound 100 nM): 10.9% | % dead cells, KILR ADCC killing assay (Daudi cells [1]; compound 300 nM): 10.9% and 11.1% | % dead cells, KILR ADCC killing assay (Daudi cells [1]; compound 1000 nM): 11.4% and 11.7% | % dead cells, KILR ADCC killing assay (Daudi cells [1]; compound 3000 nM): 10.3% and 10.8% | IC50 (Daudi cells [2]; ternary binding assay, Daudi cells, human IgG1k PE): > 3000 nM

B2: A A H MeF V L P Bph V W V C (peptide)
peptide: AAH[NMeF]VLP[Bip]VWVC
modifications: not fully specified (N-terminus, bridges); printed as A A H MeF V L P Bph V W V C
Binding Assay (ELISA signal) (CD38 [5]): 0.84

B3: A R Ahp Y A D G V L Bph Ahp D C (peptide)
peptide: AR[Ahp(2)]YADGVL[Bip][Ahp(2)]DC
modifications: not fully specified (N-terminus, bridges); printed as A R Ahp Y A D G V L Bph Ahp D C
notes: Alanine variant at position 5
Binding Assay (ELISA signal) (CD38 [4]): 0.28

B7: A A Ahp Y H D G V L Bph Ahp D C (peptide)
peptide: AA[Ahp(2)]YHDGVL[Bip][Ahp(2)]DC
modifications: not fully specified (N-terminus, bridges); printed as A A Ahp Y H D G V L Bph Ahp D C
Binding Assay (ELISA signal) (CD38 [4]): 0.6

B8: A R Ahp A H D G V L Bph Ahp D C (peptide)
peptide: AR[Ahp(2)]AHDGVL[Bip][Ahp(2)]DC
modifications: not fully specified (N-terminus, bridges); printed as A R Ahp A H D G V L Bph Ahp D C
notes: Alanine variant at position 4
Binding Assay (ELISA signal) (CD38 [4]): 0.11

B9: A R Ahp Y H A G V L Bph Ahp D C (peptide)
peptide: AR[Ahp(2)]YHAGVL[Bip][Ahp(2)]DC
modifications: not fully specified (N-terminus, bridges); printed as A R Ahp Y H A G V L Bph Ahp D C
notes: Alanine variant at position 6
Binding Assay (ELISA signal) (CD38 [4]): 0.93

B11: A R A Y H D G V L Bph Ahp D C (peptide)
peptide: ARAYHDGVL[Bip][Ahp(2)]DC
modifications: not fully specified (N-terminus, bridges); printed as A R A Y H D G V L Bph Ahp D C
notes: Alanine variant at position 3
Binding Assay (ELISA signal) (CD38 [4]): 0.11

B12: A L A MeF V L P Bph V W V C (peptide)
peptide: ALA[NMeF]VLP[Bip]VWVC
modifications: not fully specified (N-terminus, bridges); printed as A L A MeF V L P Bph V W V C
notes: Alanine variant at position 3
Binding Assay (ELISA signal) (CD38 [5]): 0.37

Results, then the molecule that gave them:

Binding Assay (ELISA signal) (CD38 [4]): 0.2
B1: A R Ahp Y H D G V L Bph A D C (peptide)
peptide: AR[Ahp(2)]YHDGVL[Bip]ADC
modifications: not fully specified (N-terminus, bridges); printed as A R Ahp Y H D G V L Bph A D C
notes: Alanine variant at position 11

Binding Assay (ELISA signal) (CD38 [4]): 0.09
B4: A R Ahp Y H D G V L A Ahp D C (peptide)
peptide: AR[Ahp(2)]YHDGVLA[Ahp(2)]DC
modifications: not fully specified (N-terminus, bridges); printed as A R Ahp Y H D G V L A Ahp D C
notes: Alanine variant at position 10

Binding Assay (ELISA signal) (CD38 [4]): 1.49
B5: A R Ahp Y H D A V L Bph Ahp D C (peptide)
peptide: AR[Ahp(2)]YHDAVL[Bip][Ahp(2)]DC
modifications: not fully specified (N-terminus, bridges); printed as A R Ahp Y H D A V L Bph Ahp D C
notes: Alanine variant at position 7

Binding Assay (ELISA signal) (CD38 [4]): 0.3
B6: A R Ahp Y H D G A L Bph Ahp D C (peptide)
peptide: AR[Ahp(2)]YHDGAL[Bip][Ahp(2)]DC
modifications: not fully specified (N-terminus, bridges); printed as A R Ahp Y H D G A L Bph Ahp D C
notes: Alanine variant at position 8

Binding Assay (ELISA signal) (CD38 [4]): 0.08
B10: A R Ahp Y H D G V A Bph Ahp D C (peptide)
peptide: AR[Ahp(2)]YHDGVA[Bip][Ahp(2)]DC
modifications: not fully specified (N-terminus, bridges); printed as A R Ahp Y H D G V A Bph Ahp D C
notes: Alanine variant at position 9

Binding Assay (ELISA signal) (CD38 [4]): 1.79
B13: A R Ahp Y H D G V L Bph Ahp A C (peptide)
peptide: AR[Ahp(2)]YHDGVL[Bip][Ahp(2)]AC
modifications: not fully specified (N-terminus, bridges); printed as A R Ahp Y H D G V L Bph Ahp A C
notes: Alanine variant at position 12

— patent publication US20230028880A1, “CD38-BINDING AGENTS AND USES THEREOF” (Biohaven Therapeutics Ltd., priority 2019, published 2023)
